Measurements as given in patent publication US20240360126A1, “PYRAZOLO[3,4-B]PYRIDINE COMPOUNDS FOR THE TREATMENT OF AUTOIMMUNE DISEASE” (Hoffmann-La Roche Inc., priority 2021, published 2024).

Molecular target: T1, human TLR8 (Homo sapiens, UniProt Q9NR97)
T1 construct: host or cells: HEK293 (HEK-Blue hTLR8)
T1 sequence (Q9NR97 27-1041): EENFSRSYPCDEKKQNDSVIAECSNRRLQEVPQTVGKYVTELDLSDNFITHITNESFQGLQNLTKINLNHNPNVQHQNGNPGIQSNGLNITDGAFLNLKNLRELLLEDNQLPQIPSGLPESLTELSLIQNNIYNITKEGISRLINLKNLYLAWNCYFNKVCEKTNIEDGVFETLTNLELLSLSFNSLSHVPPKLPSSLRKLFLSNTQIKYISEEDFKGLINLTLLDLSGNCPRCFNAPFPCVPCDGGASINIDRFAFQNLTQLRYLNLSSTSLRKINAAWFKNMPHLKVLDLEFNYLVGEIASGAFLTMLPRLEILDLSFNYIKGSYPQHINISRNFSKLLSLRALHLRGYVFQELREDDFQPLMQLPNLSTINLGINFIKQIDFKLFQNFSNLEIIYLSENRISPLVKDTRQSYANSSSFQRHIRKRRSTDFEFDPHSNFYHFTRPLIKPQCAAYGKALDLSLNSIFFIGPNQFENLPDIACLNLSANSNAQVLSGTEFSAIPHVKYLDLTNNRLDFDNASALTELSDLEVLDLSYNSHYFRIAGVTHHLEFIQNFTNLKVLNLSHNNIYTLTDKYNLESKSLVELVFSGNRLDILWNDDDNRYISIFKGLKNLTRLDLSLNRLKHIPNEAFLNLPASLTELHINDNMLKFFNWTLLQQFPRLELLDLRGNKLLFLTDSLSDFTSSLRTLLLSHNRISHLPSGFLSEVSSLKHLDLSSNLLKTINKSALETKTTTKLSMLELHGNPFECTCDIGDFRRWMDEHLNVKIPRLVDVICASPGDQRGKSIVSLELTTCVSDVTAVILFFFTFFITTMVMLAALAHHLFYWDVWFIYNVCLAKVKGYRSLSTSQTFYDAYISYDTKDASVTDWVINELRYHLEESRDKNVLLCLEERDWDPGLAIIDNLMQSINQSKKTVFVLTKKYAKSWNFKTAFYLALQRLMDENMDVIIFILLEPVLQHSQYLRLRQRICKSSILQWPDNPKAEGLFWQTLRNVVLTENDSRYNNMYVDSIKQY
Test: HEK293-Blue-hTLR-8 cells assay
Format: cell-based
Conditions: HEK293-Blue-hTLR8 cells, R848 stimulation, 20 hrs; read-out: HEK/hTLR8 IC50
Description: A stable HEK293-Blue-hTLR-8 cell line was purchased from InvivoGen (Cat. #: hkb-htlr8, San Diego, California, USA). These cells were originally designed for studying the stimulation of human TLR8 by monitoring the activation of NF-κB. A SEAP (secreted embryonic alkaline phosphatase) reporter gene was placed under the control of the IFN-β minimal promoter fused to five NF-κB and AP-1-binding sites. The SEAP was induced by activating NF-κB and AP-1 via stimulating HEK-Blue hTLR8 cells with TLR8 ligands. Therefore the reporter expression was declined by TLR8 antagonist under the stimulation of a ligand, such as R848, for incubation of 20 hrs. The cell culture supernatant SEAP reporter activity was determined using QUANTT-BlueTv™ kit (Cat. #: rep-qbl, Invivogen, San Diego, Ca, USA) at a wavelength of 640 nm, a detection medium that turns purple or blue in the presence of alkaline phosphatase.
HEK293-Blue-hTLR8 cells were incubated at a density of 250,000˜450,000 cells/mL in a volume of 170 μL in a 96-well plate in Dulbecco's Modified Eagle's medium (DMEM) containing 4.5 g/L glucose, 50 U/mi penicillin, […] streptomycin, […], 2 mM L-glutamine, 10% (v/v) heat-inactivated fetal bovine serum with addition of 20 μL test compound in a serial dilution in the presence of final DMSO at 1% and 10 μL of 60 μM R848 in above DMEM, perform incubation under 37° C. in a CO2 incubator for 20 hrs. Then 20 μL of the supernatant from each well was incubated with 180 μL Quanti-blue substrate solution at 37° C. for 2 hrs and the absorbance was read at 620-655 nm using a spectrophotometer. The signaling pathway that TLR8 activation leads to downstream NF-κB activation has been widely accepted, and therefore similar reporter assay was modified for evaluating TLR8 antagonist.

Work on Cc1cc(N2CCC(c3cnc(N4CCNCC4)nc3C)CC2)c2cnn(C)c2n1 [Example 11, 1,6-dimethyl-4-[4-(4-methyl-2-piperazin-1-yl-pyrimidin-5-yl)-1-piperidyl]pyrazolo[3,4-b]pyridine] yielded an IC50 of 42 nM.

Cc1cc(N2CCC(c3ccc(N4CCNCC4)cc3)CC2)c2cnn(C)c2n1 [Example 1, 1,6-dimethyl-4-[4-(4-piperazin-1-ylphenyl)-1-piperidyl]pyrazolo[3,4-b]pyridine] showed an IC50 of 12 nM.

For COC[C@H]1CN(c2ccc([C@H]3CCN(c4cc(C)nc5c4cnn5C)C[C@@H]3C)nc2)CCN1 [Example 37, 4-[(3R,4S)-4-[5-[(3R)-3-(methoxymethyl)piperazin-1-yl]-2-pyridyl]-3-methyl-1-piperidyl]-1,6-dimethyl-pyrazolo[3,4-b]pyridine], the IC50 was 13 nM.

In the case of Cc1cc(N2CC[C@H](c3ccc(N4CC5(CNCCO5)C4)cn3)[C@@H](C)C2)c2cnn(C)c2n1 [Example 38, 2-[6-[(3R,4S)-1-(1,6-dimethylpyrazolo[3,4-b]pyridin-4-yl)-3-methyl-4-piperidyl]-3-pyridyl]-5-oxa-2,8-diazaspiro[3.5]nonane], the IC50 is reported as 11 nM.

Cc1cc(N2CCC(c3cnc(N4CCNCC4)cn3)CC2)c2cnn(C)c2n1 [Example 3, 1,6-dimethyl-4-[4-(5-piperazin-1-ylpyrazin-2-yl)-1-piperidyl]pyrazolo[3,4-b]pyridine] was tested, and the IC50 was 50 nM.

For Cc1cc(N2CC[C@@H](c3ncc(N4CCOC[C@@H](N)C4)cc3C)[C@H](C)C2)c2cnn(C)c2n1 [Example 28, (6S)-4-[6-[(3S,4R)-1-(1,6-dimethylpyrazolo[3,4-b]pyridin-4-yl)-3-methyl-4-piperidyl]-5-methyl-3-pyridyl]-1,4-oxazepan-6-amine], the IC50 was 2 nM.

Work on Cc1cc(N2CCC(c3ncc(N4CCNCC4)nc3C)[C@H](C)C2)c2cnn(C)c2n1 (single isomer, unassigned) [Example 22, 1,6-dimethyl-4-[cis-3-methyl-4-(3-methyl-5-piperazin-1-yl-pyrazin-2-yl)-1-piperidyl]pyrazolo[3,4-b]pyridine] yielded an IC50 of 6 nM.

In the case of COC[C@H]1CN(c2cnc([C@@H]3CCN(c4cc(C)nc5c4cnn5C)C[C@H]3C)c(C)c2)CCN1 [Example 29, 4-[(3S,4R)-4-[5-[(3R)-3-(methoxymethyl)piperazin-1-yl]-3-methyl-2-pyridyl]-3-methyl-1-piperidyl]-1,6-dimethyl-pyrazolo[3,4-b]pyridine], the IC50 is reported as 8 nM.

CO[C@@H]1CN(c2ccc([C@H]3CCN(c4cc(C)nc5c4cnn5C)C[C@@H]3C)nc2)C[C@H]1N [Example 36, (3R,4R)-1-[6-[(3R,4S)-1-(1,6-dimethylpyrazolo[3,4-b]pyridin-4-yl)-3-methyl-4-piperidyl]-3-pyridyl]-4-methoxy-pyrrolidin-3-amine] was tested, and the IC50 was 21 nM.

In the case of Cc1cc(N2CCC(c3ncc(N4CCNCC4)cc3C)CC2)c2cnn(C)c2n1 [Example 7, 1,6-dimethyl-4-[4-(3-methyl-5-piperazin-1-yl-2-pyridyl)-1-piperidyl]pyrazolo[3,4-b]pyridine], the IC50 is reported as 29 nM.

Cc1cc(N2CC[C@@H](c3ccc(N4CCNCC4)cn3)[C@H](C)C2)c2cnn(C)c2n1 [Example 34, 1,6-dimethyl-4-[(3S,4R)-3-methyl-4-(5-piperazin-1-yl-2-pyridyl)-1-piperidyl]pyrazolo[3,4-b]pyridine] was tested, and the IC50 was 11 nM.

Compound Cc1cc(N2CC[C@H](c3ccc(N4CCNCC4)cn3)[C@@H](C)C2)c2cnn(C)c2n1 [Example 35, 1,6-dimethyl-4-[(3R,4S)-3-methyl-4-(5-piperazin-1-yl-2-pyridyl)-1-piperidyl]pyrazolo[3,4-b]pyridine] has an IC50 of 9 nM.

Work on Cc1cc(N2CCC(c3ncc(N4CCNCC4)cc3C)[C@H](C)C2)c2cnn(C)c2n1 (single isomer, unassigned) [Example 25, 1,6-dimethyl-4-[trans-3-methyl-4-(3-methyl-5-piperazin-1-yl-2-pyridyl)-1-piperidyl]pyrazolo[3,4-b]pyridine] yielded an IC50 of 7 nM.

Cc1cc(N2CCC(c3cnc(N4CCNCC4)cc3C)[C@H](C)C2)c2cnn(C)c2n1 (single isomer, unassigned) [Example 21, 1,6-dimethyl-4-[trans-3-methyl-4-(4-methyl-6-piperazin-1-yl-3-pyridyl)-1-piperidyl]pyrazolo[3,4-b]pyridine] was tested, and the IC50 was 3 nM.
